Measurements taken from patent EP0531640B1, “Antibiotic LL-E19020 Gamma” (F. HOFFMANN-LA ROCHE AG, priority 1991, dated 1993).

Assay: Growth of chickens and efficiency of feed utilization
Assay type: in vivo, Peterson X Arbor Acres chicks
Details: chicks, 200 ppm in the diet (positive control), day 1 to day 14
Method: In this test, one day old Peterson X Arbor Acres chicks are sorted into equal weight groups of 5 males and 5 females per cage. Cages are randomized to treatment groups with six replicates per treatment. The test compound is evaluated 25 ppm in the diet against chicks receiving a non-medicated diet and a diet containing 200 ppm of penicillin as a positive control.
The cages are weighed at day 1 and at day 14 and feed consumption is measured on weigh days. Feed and water are offered ad libitum and lighting and supplemental heat are provided continuously.
The poultry diet employed in the test is as follows:
The vitamin-amino acid premix in the above feed composition is prepared from the following formulation. The expressions of quantity relate to units per kilogram of the finished feed composition.

Penicillin [reference compound]
Weight Gain: 344 g | Weight Gain, % improvement over control: 7.2% | feed conversion: 1.317 | feed conversion, % improvement over control: 0.4%
